Results from US20060252774A1, “Regulation of type 5 adenylyl cyclase for treatment of neurodegenerative and cardiac diseases” (priority 2002, published 2006).
“Also recorded” adds a separate entry of the source.

How the values were obtained:
[1] = target: T1, AC3 (Rattus norvegicus, UniProt P21932); test: Adenyl cyclase stimulation by forskolin derivatives, High five cell membranes overexpressing type III; type: biochemical; conditions: 5 mM MgCl2
T1 sequence (P21932 1-1144): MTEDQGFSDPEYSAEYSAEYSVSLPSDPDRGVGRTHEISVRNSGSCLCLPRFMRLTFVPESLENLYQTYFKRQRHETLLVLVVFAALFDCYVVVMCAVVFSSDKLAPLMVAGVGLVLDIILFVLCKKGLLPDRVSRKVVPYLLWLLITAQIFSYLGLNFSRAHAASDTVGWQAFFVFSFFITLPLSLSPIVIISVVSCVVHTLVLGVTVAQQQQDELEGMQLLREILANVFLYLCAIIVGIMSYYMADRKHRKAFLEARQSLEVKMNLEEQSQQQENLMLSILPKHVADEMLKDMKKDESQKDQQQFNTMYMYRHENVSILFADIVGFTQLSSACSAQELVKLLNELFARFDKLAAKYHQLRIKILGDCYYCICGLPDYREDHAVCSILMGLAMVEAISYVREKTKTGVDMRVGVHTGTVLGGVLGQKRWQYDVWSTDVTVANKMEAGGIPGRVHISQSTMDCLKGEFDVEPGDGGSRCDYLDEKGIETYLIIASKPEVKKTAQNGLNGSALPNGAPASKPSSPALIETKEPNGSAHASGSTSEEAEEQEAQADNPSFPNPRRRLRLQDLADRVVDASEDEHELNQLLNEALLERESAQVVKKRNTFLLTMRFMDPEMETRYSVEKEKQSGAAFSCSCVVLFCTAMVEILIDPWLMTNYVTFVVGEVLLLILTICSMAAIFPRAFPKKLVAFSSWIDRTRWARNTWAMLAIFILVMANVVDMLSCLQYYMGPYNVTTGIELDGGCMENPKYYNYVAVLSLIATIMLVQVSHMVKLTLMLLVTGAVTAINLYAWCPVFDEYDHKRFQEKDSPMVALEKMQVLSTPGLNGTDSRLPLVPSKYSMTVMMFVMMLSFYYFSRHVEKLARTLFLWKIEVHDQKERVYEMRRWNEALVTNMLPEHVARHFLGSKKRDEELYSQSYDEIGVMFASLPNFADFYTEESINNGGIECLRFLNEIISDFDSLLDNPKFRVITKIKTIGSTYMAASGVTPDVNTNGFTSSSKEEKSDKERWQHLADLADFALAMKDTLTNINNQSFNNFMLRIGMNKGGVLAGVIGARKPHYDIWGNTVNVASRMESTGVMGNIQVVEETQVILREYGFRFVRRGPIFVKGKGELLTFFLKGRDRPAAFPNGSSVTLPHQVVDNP
Experimental: (§1) FIG. 15: Effect of forskolin, 6[3-(dimethylamino)propionyl]-14,15-dihydroforskolin, and NKH477 on adenyl cyclase [isforms.] isoforms: Forskolin derivatives dose response effect (A-C). High five cell membranes overexpressing type II (A), type III (B), and type V (C) adenyl cyclases. Adenyl cyclase activity was measured in the presence of 5 mM of MgCl2 with various concentrations of forskolin (closed circles), 6[3-(dimethylamino)propionyl]-14,15-dihydroforskolin (D, open triangles) or NKH477 (open circles). Means±SEM from 4 independent experiments are shown. *, p<0.01 differences from the value with forskolin.

[2] = target: T2, AC2 (Rattus norvegicus, UniProt P26769); test: Adenyl cyclase stimulation by forskolin derivatives, High five cell membranes overexpressing type II; type: biochemical; set-up: made in house; host or cells: High Five insect cells (membranes); conditions: 5 mM MgCl2
Experimental: as §1

[3] = target: T3, AC5 (Canis lupus familiaris, UniProt P30803); test: Adenyl cyclase stimulation by forskolin derivatives, High five cell membranes overexpressing type V; type: biochemical; set-up: made in house; host or cells: High Five insect cells (membranes)
Experimental: as §1

[4] = target: T3, AC5; set-up: made in house; host or cells: High Five insect cells (membranes); conditions: previously reported; potency on AC2 and AC3 remained similar; cited from earlier work
[5] = test system: AC5; test: AC catalytic activity inhibition, AC5 isoform; type: biochemical; conditions: for selectivity ratio between AC5 and AC2: inhibition of AC catalytic activity
Text: (§2) FIG. 11. […] The relative inhibitory activity versus control (% control activity) for various AC isoforms are shown. Data are means±S.D. of quadruplicate determinations.
(§3) Classic inhibitors of AC include adenosine analogs or P-site inhibitors, and MDL12330A, a non-nucleic acid inhibitor. However, not much was known about the isoform selectivity of these inhibitors. […] It was previously noted that AC2 was less sensitive to THFA than the other isoforms, giving a selectivity ratio of 1.8 when compared between AC6 and AC2.
(§4) Inventors will first determine the selectivity among the AC isoforms (FIG. 12). […] The IC50 values were calculated to be 0.32 micro M for AC5, 11.1 micro M for AC3, 65.3 micro M for AC2. The selectivity ratio of HI30435 was 207 between AC5 and AC2. […] The selectivity ratio was 18 between AC5 and AC2.

[6] = target: T1, AC3; test: AC catalytic activity inhibition, AC3 isoform; type: biochemical; conditions: for IC50: 5 mM MgCl2 with Gsalpha/GTPgammaS/forskolin (50 micro M)
Text: (§5) Classic inhibitors of AC include adenosine analogs or P-site inhibitors, and MDL12330A, a non-nucleic acid inhibitor.
(§6) Inventors will first determine the selectivity among the AC isoforms (FIG. 12).

[7] = target: T2, AC2; test: AC catalytic activity inhibition, AC2 isoform; type: biochemical
Text: as §5, §6

[8] = test system: H9C2 cells; test: cAMP accumulation in H9C2 cells; type: cell-based; conditions: 10 micro M forskolin and isoproterenol; compound 10 micro M
Experimental: FIG. 10: Effect of NKY80 and HI30435 on cAMP accumulation in H9C2 cells.[:] H9C2 cells were incubated in the presence of 10 micro M forskolin and isoproterenol and NKY80 or HI30435 (10 micro M), followed by cAMP accumulation assays (n=4-5, p<0.01).
as §4

[9] = target: T3, AC5; test: AC catalytic activity inhibition, AC5 isoform; type: biochemical; set-up: IC50 for AC5; other: 5 mM MgCl2 with Gsalpha/GTPgammaS/forskolin (50 micro M); other: in the presence of Gsalpha/GTPgammaS/forskolin; other: 10 micro M; conditions: for IC50: 5 mM MgCl2 with Gsalpha/GTPgammaS/forskolin (50 micro M)
Text: as §2, §3, §4

[10] = test system: striatal AC; test: D1 or D2 receptor agonist-stimulated AC activity in striatal membrane preparations; type: biochemical, mouse; conditions: WT striatal membranes; 1 μM
Experimental: AC catalytic activity was compared as previously described (15) using the membrane preparations from the striatum, cortex and cerebellum A). AC assays were conducted in the presence of 50 μM forskolin. […] D1 or D2 receptor agonist-stimulated AC activity was also examined (C). […] Each AC catalytic activity was compared to that in the presence of 10 μM GTP alone. Open bars, WT (^+/+); closed bars, AC5KO (^−/−). Means±SEM are shown. *p<0.05, **p<0.01, relative to ^+/+, n=4.
Striatal tissues were dissected from mice and membrane preparations were prepared for AC assays as previously described (10, 11).
We also examined receptor agonist-stimulated AC activity (FIG. 3C).

[11] = test system: WT and AC5KO mice; test: Locomotor activity test with dopaminergic agonists; type: in vivo, mouse; conditions: subcutaneous, SKF38393 25 or 50 mg/kg, cabergoline 0.2 or 1.0 mg/kg
Experimental: FIG. 27. Motor dysfunction in ACD-^−/− mice. Rotarod test (A)—Each mouse was placed on a 3.5-cm diameter rod covered with rubber to evaluate rotarod performance (14). Mice were left for 1 minute on the rod for habituation. The rod rotated gradually increasing from 4 to 40 rpm over the course of 5 min and the time that mice could stay on an accelerating rotarod without failing was recorded. Five trials were conducted for each individual 10-25 min apart within the dark phase of the light/dark cycle. Mice that stayed on the rotarod for >300 sec were considered complete responders, and their latencies were recorded as 300 sec. *p<0.05, relative to ^+/+; ^+/−, n=17-20. […] Locomotor activity (B) was assessed using an activity monitor equipped with photocell beams (Columbus Instruments, Ohio, USA). The number of photobeam interruptions in each perpendicular axis was recorded and totaled for 5 min. The behavior of the mice was recorded simultaneously by video camera for later analysis, and their rearing actions were counted (C). *p<0.05, relative to ^+/+, n=15-20. […] The time until it turned completely downward (open bars, Tturn) and the time until it climbed down to the floor (closed bars, TLA) were measured *p<0.01, relative to ^+/+, n=14-17. […]
FIG. 32. […] In rotarod test, the best performance out of five trials in each individual was evaluated. […]

[12] = test system: WT and AC5KO mice; test: Rotarod test with dopaminergic agonists; type: in vivo, mouse; conditions: WT and AC5KO; subcutaneous; 25 or 50 mg/kg
Experimental: (§7) FIG. 27. Motor dysfunction in ACD-^−/− mice. Rotarod test (A)—Each mouse was placed on a 3.5-cm diameter rod covered with rubber to evaluate rotarod performance (14). Mice were left for 1 minute on the rod for habituation. The rod rotated gradually increasing from 4 to 40 rpm over the course of 5 min and the time that mice could stay on an accelerating rotarod without failing was recorded. Five trials were conducted for each individual 10-25 min apart within the dark phase of the light/dark cycle. Mice that stayed on the rotarod for >300 sec were considered complete responders, and their latencies were recorded as 300 sec. *p<0.05, relative to ^+/+; ^+/−, n=17-20. Activity tests (B and C)—The tests were performed as previously described (14, 15). Mice were put in the darkened testing room 60 minutes for habituation before testing. Locomotor activity (B) was assessed using an activity monitor equipped with photocell beams (Columbus Instruments, Ohio, USA). The number of photobeam interruptions in each perpendicular axis was recorded and totaled for 5 min. The behavior of the mice was recorded simultaneously by video camera for later analysis, and their rearing actions were counted (C). *p<0.05, relative to ^+/+, n=15-20. Pole test (D)—In order to evaluate bradykinesia, pole test was performed (16). In brief, mice were placed head upward on the top of a rough-surfaced pole (8 mm in diameter and 50 cm in height) that was wrapped with gauze to prevent slipping. The time until it turned completely downward (open bars, Tturn) and the time until it climbed down to the floor (closed bars, TLA) were measured *p<0.01, relative to ^+/+, n=14-17. Means±SEM are shown. Homozygous to (ACD^−/−) (closed circles, ^−/−), heterozygous (shaded circles, ^+/−), and wild type (WT) (open circles, ^+/+).
(§8) FIG. 32. Effect of dopaminergic agonists on motor functions Effects of SKF38393 on locomotor activity (A), rotarod test (B), and pole test (C) were compared. […] In rotarod test, the best performance out of five trials in each individual was evaluated. […]

[13] = test system: WT and AC5KO mice; test: Pole test with dopaminergic agonists; type: in vivo, mouse; conditions: subcutaneous
Experimental: as §7, §8

[14] = target: AC6 (Homo sapiens, UniProt O43306); conditions: previously noted; cited from earlier work
[15] = in the presence of Gsalpha/GTPgammaS/forskolin

T3 sequence (P30803 whole entry): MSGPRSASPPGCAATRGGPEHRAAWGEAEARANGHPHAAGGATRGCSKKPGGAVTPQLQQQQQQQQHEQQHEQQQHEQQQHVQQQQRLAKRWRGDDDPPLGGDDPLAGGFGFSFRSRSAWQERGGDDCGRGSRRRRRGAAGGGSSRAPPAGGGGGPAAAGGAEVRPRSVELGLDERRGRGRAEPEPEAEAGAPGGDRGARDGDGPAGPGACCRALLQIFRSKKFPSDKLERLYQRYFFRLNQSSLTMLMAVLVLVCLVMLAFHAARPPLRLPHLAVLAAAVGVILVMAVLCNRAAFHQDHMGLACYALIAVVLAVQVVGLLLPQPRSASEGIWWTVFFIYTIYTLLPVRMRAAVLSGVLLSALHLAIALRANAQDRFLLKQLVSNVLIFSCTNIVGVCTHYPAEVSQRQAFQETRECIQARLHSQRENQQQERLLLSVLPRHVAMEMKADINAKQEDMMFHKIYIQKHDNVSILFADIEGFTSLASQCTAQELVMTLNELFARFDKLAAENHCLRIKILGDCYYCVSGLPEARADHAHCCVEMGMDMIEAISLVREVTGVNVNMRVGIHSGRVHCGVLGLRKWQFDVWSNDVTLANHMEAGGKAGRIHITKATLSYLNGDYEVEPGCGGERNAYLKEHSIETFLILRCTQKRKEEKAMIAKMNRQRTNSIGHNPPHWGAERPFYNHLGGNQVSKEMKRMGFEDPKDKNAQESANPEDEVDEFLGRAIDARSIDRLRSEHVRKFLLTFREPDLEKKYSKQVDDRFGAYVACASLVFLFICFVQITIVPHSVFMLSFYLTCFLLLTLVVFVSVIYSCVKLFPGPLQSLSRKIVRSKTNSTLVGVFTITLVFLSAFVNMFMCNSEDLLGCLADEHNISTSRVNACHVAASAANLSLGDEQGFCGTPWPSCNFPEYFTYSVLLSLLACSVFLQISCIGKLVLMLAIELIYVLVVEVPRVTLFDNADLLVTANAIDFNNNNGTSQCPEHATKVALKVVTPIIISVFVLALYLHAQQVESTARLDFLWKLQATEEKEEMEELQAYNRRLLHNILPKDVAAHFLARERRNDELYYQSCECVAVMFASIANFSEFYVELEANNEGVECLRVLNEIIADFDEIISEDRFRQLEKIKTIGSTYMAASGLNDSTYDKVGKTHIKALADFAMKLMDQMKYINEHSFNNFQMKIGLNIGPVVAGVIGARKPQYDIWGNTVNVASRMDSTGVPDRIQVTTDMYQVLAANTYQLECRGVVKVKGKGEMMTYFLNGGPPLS
Chain of AC6 (O43306 whole entry): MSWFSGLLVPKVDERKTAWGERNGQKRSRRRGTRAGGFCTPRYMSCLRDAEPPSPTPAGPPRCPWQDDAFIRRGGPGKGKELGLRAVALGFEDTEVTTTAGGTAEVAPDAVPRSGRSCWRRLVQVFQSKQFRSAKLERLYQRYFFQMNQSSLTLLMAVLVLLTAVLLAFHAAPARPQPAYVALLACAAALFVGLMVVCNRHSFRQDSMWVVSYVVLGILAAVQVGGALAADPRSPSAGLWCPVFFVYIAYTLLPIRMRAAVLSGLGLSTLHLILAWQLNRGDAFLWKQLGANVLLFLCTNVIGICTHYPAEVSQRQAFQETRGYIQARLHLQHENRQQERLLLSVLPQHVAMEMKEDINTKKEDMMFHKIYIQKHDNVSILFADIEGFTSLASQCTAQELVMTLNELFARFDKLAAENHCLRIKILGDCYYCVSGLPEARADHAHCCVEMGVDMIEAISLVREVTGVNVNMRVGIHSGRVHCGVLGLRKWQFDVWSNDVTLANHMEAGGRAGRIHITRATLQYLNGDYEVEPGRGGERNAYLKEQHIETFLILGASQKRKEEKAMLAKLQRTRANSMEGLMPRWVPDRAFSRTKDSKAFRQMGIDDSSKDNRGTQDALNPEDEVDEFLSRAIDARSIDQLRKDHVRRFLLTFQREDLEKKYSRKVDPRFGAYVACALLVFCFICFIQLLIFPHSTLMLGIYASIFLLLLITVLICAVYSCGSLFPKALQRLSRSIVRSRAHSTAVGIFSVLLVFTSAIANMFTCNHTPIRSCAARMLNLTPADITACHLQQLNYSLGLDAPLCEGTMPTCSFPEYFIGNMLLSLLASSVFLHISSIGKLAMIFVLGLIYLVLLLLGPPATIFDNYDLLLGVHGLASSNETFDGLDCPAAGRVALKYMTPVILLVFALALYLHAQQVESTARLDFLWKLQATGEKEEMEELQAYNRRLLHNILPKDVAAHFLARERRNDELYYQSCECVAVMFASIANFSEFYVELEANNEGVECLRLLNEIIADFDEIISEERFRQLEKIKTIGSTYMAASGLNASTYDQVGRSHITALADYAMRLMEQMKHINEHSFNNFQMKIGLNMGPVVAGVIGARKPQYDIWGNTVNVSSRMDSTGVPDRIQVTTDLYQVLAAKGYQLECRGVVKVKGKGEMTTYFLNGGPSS
T2 sequence (P26769 whole entry): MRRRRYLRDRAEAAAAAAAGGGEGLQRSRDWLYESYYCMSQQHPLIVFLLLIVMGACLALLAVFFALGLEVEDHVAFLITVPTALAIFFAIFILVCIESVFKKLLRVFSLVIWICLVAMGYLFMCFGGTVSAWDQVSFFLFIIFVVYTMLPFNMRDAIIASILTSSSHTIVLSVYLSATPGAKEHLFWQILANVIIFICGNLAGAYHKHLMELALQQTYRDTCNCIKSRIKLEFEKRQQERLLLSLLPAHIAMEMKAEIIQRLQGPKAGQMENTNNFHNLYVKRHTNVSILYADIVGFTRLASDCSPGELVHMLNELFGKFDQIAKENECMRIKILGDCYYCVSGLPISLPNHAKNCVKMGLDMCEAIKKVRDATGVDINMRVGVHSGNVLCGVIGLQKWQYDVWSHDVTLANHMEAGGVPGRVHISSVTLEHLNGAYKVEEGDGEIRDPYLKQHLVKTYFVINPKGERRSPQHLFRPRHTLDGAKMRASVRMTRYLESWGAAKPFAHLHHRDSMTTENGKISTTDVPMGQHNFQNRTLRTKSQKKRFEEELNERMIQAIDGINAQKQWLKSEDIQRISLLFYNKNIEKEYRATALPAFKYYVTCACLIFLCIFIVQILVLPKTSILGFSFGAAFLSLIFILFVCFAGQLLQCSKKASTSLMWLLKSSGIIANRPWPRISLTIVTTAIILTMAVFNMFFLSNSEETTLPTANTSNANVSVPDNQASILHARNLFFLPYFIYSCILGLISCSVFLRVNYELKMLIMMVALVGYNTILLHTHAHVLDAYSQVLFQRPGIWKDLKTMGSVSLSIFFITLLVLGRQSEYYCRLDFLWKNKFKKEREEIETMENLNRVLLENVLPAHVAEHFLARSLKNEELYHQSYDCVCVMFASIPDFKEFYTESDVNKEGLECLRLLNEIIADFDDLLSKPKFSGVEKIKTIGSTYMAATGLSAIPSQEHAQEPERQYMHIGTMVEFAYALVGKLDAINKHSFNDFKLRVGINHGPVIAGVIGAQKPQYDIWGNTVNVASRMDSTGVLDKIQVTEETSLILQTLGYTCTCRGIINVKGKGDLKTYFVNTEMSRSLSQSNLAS

CCC1(C)CC(=O)C2(O)C(C)(O1)C(OC(C)=O)C(OC(=O)CCN(C)C)C1C(C)(C)CCC(O)C12C (centres unmarked) [6-3(dimethylaminopropionyl]-14,15-dihydroforskolin]
relative potency of stimulation versus forskolin, AC3 [1]: 31%
relative potency of stimulation versus forskolin, AC2 [2]: 66%
relative potency of stimulation versus forskolin, AC5 ([3]; 5 mM MgCl2): 139%
AC5 selectivity of stimulation (in words) ([3]; forskolin derivatives): further enhancement in selectivity for AC5

C=C[C@@]1(C)CC(=O)[C@]2(O)[C@@]3(C)[C@@H](O)CCC(C)(C)[C@@H]3[C@H](OC(=O)CCN(C)C)[C@H](OC(C)=O)[C@@]2(C)O1 [NKH477]
stimulation of AC5 (in words) [4]: enhanced stimulation of AC5

Nc1ncc2c(n1)CC(c1ccco1)CC2=O (centres unmarked) [NKY80, 2-amino-7-(2-furanyl)-7,8-dihydro-5(6H)-quinazolinone]
mode of inhibition ([5]; Lineweaver-Burk plot analysis): not competitive with respect to ATP or forskolin
selectivity ratio between AC5 and AC2 [5]: 210
IC50 [6]: 132 µM
IC50 ([7]; Gsalpha/GTPgammaS/forskolin): 1700 µM
cAMP accumulation in H9C2 cells [8]: but not NKY80, inhibited cAMP accumulation; also recorded: did not
IC50 [9]: 8.3 µM

Oc1cc2c(cc1O)C(c1ccccc1)CNCC2 (centres unmarked) [SKF38393]
stimulation of AC activity, increase over that with 10 μM GTP [10]: 40.7±2.6%
locomotor activity [11]: increased locomotor activity in both WT and AC5KO
rotarod performance [12]: did not improve rotarod performance in both WT and AC5KO
pole test performance [13]: improved pole test performance

Nc1ncnc2c1ncn2C1CCCO1 (centres unmarked) [THFA, 9-(tetrahydro-2-furyl)adenine]
selectivity ratio between AC5 and AC2 [5]: 130
IC50 [6]: 101 µM
inhibition of AC3 (in words) [6, 15]: only to a modest degree
IC50 ([7]; 5 mM MgCl2 with Gsalpha/GTPgammaS/forskolin (50 micro M)): 285 µM
inhibition of AC2 (in words) [7, 15]: only to a modest degree
selectivity ratio between AC6 and AC2 [14]: 1.8
IC50 [9]: 2.2 µM
inhibition of AC5 (in words) [9, 15]: potently inhibited AC5
